# Measured values reported in publication PMC6677171, “Subunit interactions and arrangements in the fission yeast Mis16–Mis18–Mis19 complex” (Life Science Alliance, 2019).
# “Also recorded” adds a separate entry of the source. Where no end group is shown, it is not given here.
# Experiments:
# Mis16 [1] = molecular target: T1, Mis16 (Schizosaccharomyces pombe, UniProt O94244); test: ITC binding of peptides to Mis16; design: species or system S. pombe; details: for binding to Mis16 (in words): 30°C, mutants of the Mis19 C-terminal peptide (residues 97–112)
# T1 construct: double-Strep-Tactin tag (TEV protease-cleavable) (N, cleaved yes); made in house; host or cells: insect cells (baculovirus made in Sf21, expression in Hi5)
# Method: (§1) ITC experiments were performed at 30°C using an iTC200 (MicroCal). Samples were concentrated in a 50 mM Tris, pH 7.5, 100 mM NaCl, 4% glycerol, and […] buffer. Protein concentrations were determined using a spectrophotometer. The concentration of protein complex in the ITC cell was 26 μM. The lyophilised peptides of histone H4^27–50 or Mis19^97–112 were dissolved in the ITC buffer to a concentration of 260 μM. 3-μl injections were performed at 1,000 rpm stirring speed with an injection spacing of 3 min. The thermodynamic data were processed with the ORIGIN program (MicroCal).
# Mis16 [2] = molecular target: T1, Mis16; test: ITC competition between H4α1 and Mis19 site C peptides for Mis16; format: binding, S. pombe; details: Mis16 preincubated with one peptide before titration of the second, 30°C, pH 7.5
# Method: Figure 3.
# as §1
# [3] = test system: Mis16–Mis18–Mis19 complex; test: Competition assay by size-exclusion chromatography: disruption of Mis16–Mis18–Mis19 complex; format: binding, S. pombe; details: preformed complex challenged with peptides from Mis19 N terminus
# From the text: It has previously been reported that the interaction between Mis18 and Mis 19 occurs via the N-terminal region of Mis19 binding to the C terminus (coiled-coil) of Mis18 ([Hayashi et al, 2014]). We tried to analyse this interaction in more detail. Given that residues 56–112 of Mis19 are involved interactions with Mis16, we constructed two truncations of Mis19 with half of the remaining N-terminal residues deleted in each case (Mis19^27-C and Mis19^44-C). We first asked if these Mis16–Mis19 constructs could still interact with Mis18 in an affinity pull-down experiment (Figs 6A and S6A). […] We then add Mis18 to the Mis16–Mis19 constructs. […] To further analyse these interactions, we carried out competition assays, challenging preformed Mis16–Mis18–Mis19 complex with peptides from the N terminus of Mis19, analysing the results both by size-exclusion chromatography and affinity pull-down assays. […] To try and pinpoint the residues that might be responsible for the interaction with Mis18, we carried out a sequence alignment of the Mis19 N terminus and noticed two conserved stretches of residues characterised by an IxxxF pattern (motif 1) and LxxF (motif 2) (Fig 7A). The two motifs are coincident with the two truncations we identified: between residues 1–27 and 28–44, respectively. As the N terminus of Mis19 is likely to be solvent-exposed (from our crystal structure), we reasoned that the conserved hydrophobic residues probably participate in protein–protein interactions. To test this, we carried out another set of competition experiments using the intact Mis16–18–19 complex and peptides carrying mutations in motifs 1 and 2, separately or combined (Fig 7B).
# Figure 6. The Mis19 N terminus binds Mis18. (A) Mis16–Mis18–Mis19 interactions assessed by pull-down. Input proteins are shown on the left. Binding of Mis16–Mis19 and Mis19 truncations to Mis18 are assessed by pull-down of Mis19 (right). (B) Mis16–19–18 binding assessed by size-exclusion and competition assays. Preformed Mis16–18–19 complex was challenged with peptides derived from the N terminus of Mis19 (indicated). […]
# [4] = test system: Mis16–Mis18–Mis19 complex; test: Competition assay by pull-down: disruption of Mis16–Mis18–Mis19 complex; format: binding, S. pombe; details: preformed Mis16–Mis19–Strep–Mis18 complex challenged with peptide, SDS–PAGE
# From the text: It has previously been reported that the interaction between Mis18 and Mis 19 occurs via the N-terminal region of Mis19 binding to the C terminus (coiled-coil) of Mis18 ([Hayashi et al, 2014]). We tried to analyse this interaction in more detail. Given that residues 56–112 of Mis19 are involved interactions with Mis16, we constructed two truncations of Mis19 with half of the remaining N-terminal residues deleted in each case (Mis19^27-C and Mis19^44-C). We first asked if these Mis16–Mis19 constructs could still interact with Mis18 in an affinity pull-down experiment (Figs 6A and S6A). […] We then add Mis18 to the Mis16–Mis19 constructs. […] To further analyse these interactions, we carried out competition assays, challenging preformed Mis16–Mis18–Mis19 complex with peptides from the N terminus of Mis19, analysing the results both by size-exclusion chromatography and affinity pull-down assays. […]
# Figure 6. […] (A) Mis16–Mis18–Mis19 interactions assessed by pull-down. […] Binding of Mis16–Mis19 and Mis19 truncations to Mis18 are assessed by pull-down of Mis19 (right). (B) Mis16–19–18 binding assessed by size-exclusion and competition assays. […]
# All in vitro pull-down assays were performed using purified proteins or protein complexes. […] Input and pull-down elution samples were analysed by SDS–PAGE.
# Mis16 [5] = molecular target: T1, Mis16; test: Co-expression and affinity pull-down/size-exclusion co-purification of Mis19 deletions with Mis16; format: binding, S. pombe; details: co-expressed in insect cells, Strep-Tactin tag on Mis16, gel filtration, SDS–PAGE band
# From the text: Figure 2. Mis16–Mis19 contact regions. (A) Crystal structure of Mis16–Mis19 highlighting the Mis19-binding sites. Three putative binding sites A, B, and C (lighter to darker orange from N terminus to C terminus) are indicated. (B) Schematic of the various deletion constructs of Mis19 are used for binding studies showing the positions of sites A, B, and C. (C) Constructs containing affinity-tagged Mis16 and the Mis19 deletions shown above were co-expressed and purified by affinity pull-down and size-exclusion chromatography. SDS–PAGE gel of peak fractions is shown. Asterisks indicate impurities. (D) Close-up of the A- and C-binding sites. The locations of the kis1-1 (R65) and eic1-1 (F102) t.s. mutant residues are shown.
# The C-terminal interaction of Mis19 with Mis16 (site C in our nomenclature) has been previously described ([An et al, 2018]). […] To test the contribution of the individual sites to the Mis16–Mis19 interaction, various truncated Mis19 constructs were designed, for which site A, […], or both A and C are missing (Fig 2B). Full-length Mis16 and Mis19C (includes sites A, B, and C, residues 52–112), construct 1 (includes site B and C, residues 66–112), construct 2 (includes binding site B, residues 66–99), and construct 3 (includes site A and B, residues 52–99) were co-expressed in insect cells, as the isolated Mis19 truncations cannot be expressed and purified. The complexes were purified using a Strep-Tactin affinity tag on Mis16 and subsequent gel filtration step. All complexes elute from gel filtration as a single species. […] This site is formed by part of the unstructured region of Mis19 running across the top edge of Mis16.
# All proteins were expressed in insect cells using standard procedures. Genes were codon-optimised in all cases (GeneArt). Single protein constructs were cloned in pFastBac vectors (Invitrogen), whereas multi-protein complexes were cloned using the MultiBac system ([Fitzgerald et al, 2006]). The Mis16 protein carried a TEV protease-cleavable double-Strep-Tactin tag at the N terminus for purification purposes. All clones were sequence verified. […]
# [6] = ITC, 50 mM Tris, pH 7.5, 100 mM NaCl, 4% glycerol
# T1 sequence (O94244 whole entry, the tested form may be a part): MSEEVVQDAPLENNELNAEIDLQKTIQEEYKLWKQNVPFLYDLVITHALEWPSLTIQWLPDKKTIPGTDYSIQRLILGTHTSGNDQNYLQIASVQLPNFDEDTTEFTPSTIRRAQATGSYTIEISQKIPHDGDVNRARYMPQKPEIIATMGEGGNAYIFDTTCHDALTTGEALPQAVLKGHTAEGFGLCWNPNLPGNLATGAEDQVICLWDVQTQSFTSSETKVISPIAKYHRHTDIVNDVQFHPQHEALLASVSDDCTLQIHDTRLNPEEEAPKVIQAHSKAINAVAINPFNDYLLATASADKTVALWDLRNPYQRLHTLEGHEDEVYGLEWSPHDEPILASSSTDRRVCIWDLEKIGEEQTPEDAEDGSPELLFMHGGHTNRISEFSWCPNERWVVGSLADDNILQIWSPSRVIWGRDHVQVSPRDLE
substance,measurement,setting,value
LHNRSFLRRNVRAVKM [Mis19 V101S],binding to Mis16 (in words),Mis16 [1]; [6],reduced but did not abolish binding
LHNRVFLRRNVRAVKM [Mis19α2],increase in affinity over H4α1,"Mis16 [1]; ratio of KD values, Mis16, ITC",3.6 fold
same,competition / displacement of the other peptide from Mis16 (in words),Mis16 [2],capable of competing out histone H4α1
LHNRVSLRRNVRAVKM [Mis19 F102S],binding to Mis16 (in words),Mis16 [1]; [6],reduced but did not abolish binding
Mis19 R105A: point mutant of the Mis19 C-terminal peptide (residues 97–112) (LHNRVFLRANVRAVKM),binding to Mis16 (in words),Mis16 [1]; [6],substantially reduced binding
"Mis19 V101S F102S R105A: triple mutant of the Mis19 C-terminal peptide (residues 97–112) (LHNRSSLRANVRAVKM; UniProt O42995 97-112, looked up, variant V101S F102S R105A)",binding to Mis16 (in words),Mis16 [1]; [6],completely abolished the interaction
same,KD,"Mis16 [1]; ITC, iTC200, 30°C, 50 mM Tris, pH 7.5, 100 mM NaCl, 4% glycerol, 0.5 TCEP, 26 μM in cell, peptide 260 μM, 3-μl injections, 1,000 rpm, spacing 3 min",no binding
Mis19^1–27: peptide from the N terminus of Mis19 (MDLMPLEKARAIEIAFDNVFHNTKIPD),disruption of preformed Mis16–Mis18–Mis19 complex (size-exclusion),[3],no effect on complex formation
same,disruption of preformed Mis16–Mis18–Mis19 complex (pull-down),[4],no effect on complex formation
Mis19^1–44: peptide from the N terminus of Mis19 (MDLMPLEKARAIEIAFDNVFHNTKIPDNLQQFDAILKRLERRRF),disruption of preformed Mis16–Mis18–Mis19 complex (size-exclusion),[3],"effectively disrupts the complex, splitting it into a Mis18-containing and Mis16–Mis19–containing fractions"
Mis19^28–44: peptide from the N terminus of Mis19 (NLQQFDAILKRLERRRF),disruption of preformed Mis16–Mis18–Mis19 complex (size-exclusion),[3],no effect on complex formation
same,disruption of preformed Mis16–Mis18–Mis19 complex (pull-down),[4],no effect on complex formation
"construct 1: Mis19 deletion, includes site B and C, residues 66–112 (EFGVKDNHNHPINLHSLRSKSLIRAQGKKLDLHNRVFLRRNVRAVKM; UniProt O42995 66-112, looked up, fragment)",association with Mis16,Mis16 [5],Mis19 is associated with Mis16
"construct 2: Mis19 deletion, includes binding site B, residues 66–99 (EFGVKDNHNHPINLHSLRSKSLIRAQGKKLDLHN; UniProt O42995 66-99, looked up, fragment)",association with Mis16,Mis16 [5],only Mis16 could be detected
"construct 3: Mis19 deletion, includes site A and B, residues 52–99 (PRVYETELLVLRFREFGVKDNHNHPINLHSLRSKSLIRAQGKKLDLHN; UniProt O42995 52-99, looked up, fragment)",association with Mis16,Mis16 [5],"Mis19 is associated with Mis16; also recorded: still able to interact with Mis16, although rather more weakly than the full-length protein"
